Among the data in patent US8188133B2, “Imidazole derivatives, preparation and user thereof as medicine” (Ipsen Pharma S.A.S., priority 2006, dated 2012) are melting point values, retold here.

In general, melting point refers to the temperature, or range, at which the solid turns liquid. Consider `Cl.NS(=O)(=O)Nc1ccc(Oc2ccc(-c3c[nH]c(COc4ccccc4)n3)cc2)cc1F`, for which the melting point was in the range of 185 to 187 °C.
`CCCCNC(=O)Nc1ccc(Oc2ccc(-c3c[nH]c(COc4ccccc4)n3)cc2)cc1.O=C(O)C(F)(F)F` had a melting point of 85 to 87 °C.
Next, `Cc1ccc(NC(=O)Nc2ccc(Oc3ccc(-c4c[nH]c(COc5ccccc5)n4)cc3)cc2)cc1` [Example 1, N-(4-methylphenyl)-N′-(4-{4-[2-(phenoxymethyl)-1H-imidazol-4-yl]phenoxy}phenyl)urea]: 192 to 194 °C; `NC(=O)Nc1ccc(Oc2ccc(-c3c[nH]c(COc4ccccc4)n3)cc2)cc1` [Example 3, N-(4-{4-[2-(phenoxymethyl)-1H-imidazol-4-yl]phenoxy}phenyl)urea]: 200 to 202 °C.
In the case of `CCNC(=S)Nc1ccc(Oc2ccc(-c3c[nH]c(COc4ccccc4)n3)cc2)cc1` [Example 4, N-ethyl-N′-(4-{4-[2-(phenoxymethyl)-1H-imidazol-4-yl]phenoxy}phenyl)thiourea] it was 178 to 180 °C; in that of `CCNC(=S)Nc1ccc(Oc2ccc(-c3c[nH]c(COc4ccccc4)n3)cc2)cc1F` [Example 5, N-ethyl-N′-(2-fluoro-4-{4-[2-(phenoxymethyl)-1H-imidazol-4-yl]phenoxy}phenyl)thiourea], 105 to 107 °C.
In the case of `NC(=S)Nc1ccc(Oc2ccc(-c3c[nH]c(COc4ccccc4)n3)cc2)cc1F` [Example 6, N-(2-fluoro-4-{4-[2-(phenoxymethyl)-1H-imidazol-4-yl]phenoxy}phenyl)thiourea] it was 171 to 173 °C; in that of `CC(C)NC(=O)Nc1ccc(Oc2ccc(-c3c[nH]c(COc4ccccc4)n3)cc2)cc1` [Example 7, N-isopropyl-N′-(4-{4-[2-(phenoxymethyl)-1H-imidazol-4-yl]phenoxy}phenyl)urea], 184 to 186 °C.
With `O=C(Nc1ccccc1)Nc1ccc(Oc2ccc(-c3c[nH]c(COc4ccccc4)n3)cc2)cc1` [Example 8, N-(4-{4-[2-(phenoxymethyl)-1H-imidazol-4-yl]phenoxy}phenyl)-N′-phenylurea], the melting point was 146 to 148 °C.
`N#CN=C(N)Nc1ccc(Oc2ccc(-c3c[nH]c(COc4ccccc4)n3)cc2)cc1F` [Example 12, N″-cyano-N-(2-fluoro-4-{4-[2-(phenoxymethyl)-1H-imidazol-4-yl]phenoxy}phenyl)guanidine] yielded a melting point of 139 to 141 °C.
In the case of `NC(=N[N+](=O)[O-])Nc1ccc(Oc2ccc(-c3c[nH]c(COc4ccccc4)n3)cc2)cc1F` [Example 13, N-(2-fluoro-4-{4-[2-(phenoxymethyl)-1H-imidazol-4-yl]phenoxy}phenyl)-N″-nitroguanidine] it was 193 to 195 °C.
